Reference: patent publication US20200171056A1, “SULFONYLUREA COMPOUNDS IN THE TREATMENT OF DISEASE ASSOCIATED WITH UV-INDUCED DAMAGE” (CeMM - Forschungszentrum für Molekulare Medizin GmbH, priority 2017, published 2020)

Columns and labels:
Type in all cases: cell-based, human
[1] = system: ΔXPA cells; assay: Long-term colony formation assay after UV irradiation; settings: 0.5 mM acetohexamide for 6 hours, then UV; 10 days in culture (FIG. 1E)
From the text: A. Schematic representation of the experimental setup used to perform the high-throughput drug screen, where drugs were used at five-times maximal plasma concentration (CLOUD; CeMM library of unique drugs). B. Bubble plot displaying the drugs used plotted against cell viability. Light grey bubbles indicate wildtype (WT) cells, dark grey bubbles indicate XPA-deficient cells (ΔXPA). […] C. Chemical structure of acetohexamide. D. Dose-response curve of WT and ΔXPA cells treated with or without 0.5 mM acetohexamide for 6 hours, followed by UV irradiation. Survival was assessed after 3 days, using CellTiter-Glo. […] Error bars indicate SEM (n=3). E. Colony formation using the same conditions indicated in (D), where cells were kept in culture for 10 days following UV irradiation, following which they were fixed and stained.
Cells were treated with UV at different doses with or without drug pre-treatment and then seeded into 6-well plates, at a density of 1,000 cells/well, in duplicates for 2 weeks until visible colonies were formed. Then, the medium was removed, colonies were washed with PBS and fixed using 3.7% paraformaldehyde (PFA) for 1 hour. Subsequently, the PFA was removed and colonies were stained with 0.1% crystal violet in 5% ethanol solution for 1 hour. Next, the staining solution was removed and the wells were washed, imaged and quantified using CellProfiler.

[2] = system: CPDs in genomic DNA of HAP1 cell lines; assay: Dot blot for cyclobutane pyrimidine dimers; settings: HAP1 WT and ΔXPA, 0.5 mM, 15 J/M^2 (FIG. 7C-D)
Experimental: A. Dose-response curve of WT and ΔXPA cells treated with or without 0.5 mM acetohexamide for the indicated times, followed by UV irradiation. Survival was assessed after 3 days, using CellTiter-Glo. […] Error bars indicate SEM (n=3). B. Clonogenic survival of WT and ΔXPA cells treated with 0.5 mM acetohexamide for 6 hours or left untreated, then exposed to illudin S for 10 days, as indicated. C. WT and ΔXPA cells treated with or without 0.5 mM acetohexamide for the indicated times, followed by 15 J/M^2 irradiation and analyzed by dot blot for the presence of CPDs in genomic DNA. DNA was counterstained with methylene blue (MB) as a loading control. D. Quantification of the intensities of C.
The amount of cyclobutane pyrimidine dimers (CPDs) in DNA was quantified using an immuno-dot blot assay with the CPD-specific monoclonal antibody TDM-2 (Cosmo Bio). Genomic DNA was extracted using QIAamp DNA mini kit (Qiagen), then the genomic DNA was denatured in TE buffer (10 mM Tris-CL and 1 mM EDTA, pH 7.5) by boiling for 5 minutes and subsequently 50 ng of genomic DNA was dot-blotted in triplicate onto a nitrocellulose membrane. The DNA was then fixed by baking the membrane for 2 hours at 80° C. […] Signals were detected using Amersham ECL (GE Healthcare Life Sciences DNA was counterstained with methylene blue as a loading control.

[3] = system: XPA-deficient HAP1 cells (ΔXPA); assay: High-throughput drug screen for agents that alleviate UV sensitivity of NER-deficient cells; settings: drug at five times maximal plasma concentration for 24 hours, then UV; viability after 3 days
From the text: An in-house drug library of around 300 compounds representing all structurally distinct Food and Drug Administration (FDA) approved compounds was used to allow for potential drug repurposing. First, an NER-deficient cell line was generated by making a frameshift mutation in XPA, one of the central components of NER that functions in both TC-NER and GG-NER, utilizing CRISPR-Cas9 in the human near haploid cell line HAP1 (denoted ΔXPA) (FIG. 5A). […] Next, ΔXPA and wildtype cells were exposed to the drug library (with each drug used at five times maximal plasma concentration) for 24 hours, followed by UV exposure (at a dose selected to kill ΔXPA cells but not wildtype cells) (FIGS. 1A and 5D). The compounds were scored based on their efficiency to improve cellular survival of ΔXPA cells, compared to wildtype cells (FIG. 1B). […]
Fifty nL of compound per well was transferred into 384-well plates (Corning 3712) from DMSO stock plates using acoustic transfer (Labcyte Echo 520). […] Three days later cell viability was determined using Cell Titer-Glo (Promega). […] For data analysis, the percentage of control was calculated and the signal of the DMSO irradiated sample was used to set values to 0% while the DMSO non-irradiated sample was used to set the values to 100%. […]

[4] = system: WT HAP1 cells; assay: Survival after other DNA damaging agents (MMC, HU, MMS); settings: WT HAP1, 0.5 mM for 6 hours, 3 days
Experimental: A. WT and ΔXPA cells were either treated with DMSO or 0.5 mM acetohexamide for 6 hours. Cell cycle profiles were determined using propidium iodide (P1) staining followed by FACS analysis. B-D. Survival of WT HAP1 cells treated with either DMSO or 0.5 mM acetohexamide for 6 hours, followed by exposure to the indicated DNA damaging agents (MMC: mitomycin C; HU: hydroxyl urea; MMS: methyl methanesulfonate). Survival was assessed after 3 days using CellTitre-Glo. E. Cell viability of WT cells treated either with 0.5 mM acetohexamide or 30 μM N-acetylcysteine (NAC) for 6 hours, followed by 30 J/M^2 UV exposure.
Dose Responses and UV Treatment Dose-response curves for the DNA damage agents including mitomycin C (MMC), methyl methanesulfonate (MMS), hydroxyurea (HU), neocarzinostatin (NCS) and illudin S were performed in 96-well plates by seeding 1,000 cells/well in triplicates. The next day, compounds at different concentrations were added and 3 days later, cell viability was assessed using Cell Titer-Glo (Promega)

CC(=O)c1ccc(S(=O)(=O)NC(=O)NC2CCCCC2)cc1 [acetohexamide]
UV sensitivity of ΔXPA cells, long-term colony formation assay [1]: alleviated the UV sensitivity of ΔXPA cells almost to the level of wildtype cells
clearance of CPDs, dot blot [2]: same observation was also made for HAP1 cell lines
correction of survival of ΔXPA cells compared to wildtype cells [3]: > 40%
cellular survival following exposure to HU ([4]; then hydroxyurea): did not increase cellular survival
cellular survival following exposure to MMS ([4]; then methyl methanesulfonate): did not increase cellular survival
cellular survival following exposure to MMC ([4]; then mitomycin C): did not increase cellular survival
